According to patent US20190169134A1, “NOVEL CLASS OF QUINOLONE HETEROCYCLIC AROMATIC MOLECULES FOR CANCER TREATMENT” (RenoTarget Therapeutics, Inc., priority 2016, published 2019):

How the values were obtained:
[1] = molecular target: T1, CDK2 - Cyclin E1 (Homo sapiens, UniProt P24941); test: KinaseSeeker competition binding assay
T1 construct: made in house; host or cells: cell-free system (rabbit reticulocyte lysate)
Method: (§1) Compound Reno647 was profiled against the following panel of kinases at 2 μM using the KinaseSeeker™ assay: ABL1, AKT1, AKT2, AKT3, ALK, AURKA, AXL, BRAF, BTK, CDK2, CDK5, CDK7, CDK8, CSF1R, DDR1, EGFR del L747-P753 InsS, EGFR (L861Q), EGFR (G719S), EGFR, EGFR (L858R), EPHA2, EPHB2, FGFR3, FLT1/VEGFR1, FLT2/FGFR1, FLT3, FLT4/VEGFR3, GSK-3a, HER2, IGF1R, INSR, KIT, LIMK1, MET, MLK2/MAP3K10, RPS6KA5/MSK1, MUSK, p38a/MAPK12, PDGFRA, PDGFRB, PDK1, RET, RIPK2, RPS6KA1/RSK1, SRC, TEC, TESK1, TRKB, VEGFR2, and YES 1.
(§2) KinaseSeeker is a homogeneous competition binding assay where the displacement of an active site dependent probe by an inhibitor is measured by a change in luminescence signal (see FIG. 7). Luminescence readout translates into a highly sensitive and robust assay with low background and minimal interference from test compounds.
(§3) (Jester, Cox et al. 2010; Jester, Gaj et al. 2012): 10 mM stock of compound Reno647 was diluted in DMSO to a concentration of 50 μM. Prior to initiating a profiling campaign, the compound was evaluated for false positive against split-luciferase. The compound was then screened in duplicate against each of the kinases. For kinase assays, each Cfluc-Kinase was translated along with Fos-Nfluc using a cell-free system (rabbit reticulocyte lysate) at 30° C. for 90 min. A 24 μL aliquot of this lysate containing either 1 μL of DMSO (for no-inhibitor control) or compound solution in DMSO (2 LM final concentration) was incubated for 30 minutes at room temperature followed by 1 hour in the presence of a kinase specific probe. A 80 μL of luciferin assay reagent was added to each solution and luminescence was immediately measured on a luminometer.
(§4) The % Inhibition and % Activity Remaining were calculated using the following equations:
(§5) % inhibition=(ALUcontrol−ALUsample)×100
(§6) % activity=100−% inhibition.

[2] = molecular target: T2, PDGFRA (Homo sapiens, UniProt P16234); test: KinaseSeeker competition binding assay
T2 construct: made in house; host or cells: cell-free, rabbit reticulocyte lysate
Method: as §1, §2, §3, §4, §5, §6

[3] = molecular target: T3, AKT1 (Homo sapiens, UniProt P31749); test: KinaseSeeker competition binding assay
T3 construct: made in house; host or cells: cell-free system (rabbit reticulocyte lysate)
Method: as §1, §2, §3, §4, §5, §6

[4] = molecular target: T4, RSK1 (Homo sapiens, UniProt Q15418); test: KinaseSeeker competition binding assay
T4 construct: made in house; host or cells: cell-free, rabbit reticulocyte lysate
Method: as §1, §2, §3, §4, §5, §6

[5] = molecular target: T5, FGFR3 (Homo sapiens, UniProt P22607); test: KinaseSeeker competition binding assay
T5 construct: made in house; host or cells: cell-free system (rabbit reticulocyte lysate)
Method: as §1, §2, §3, §4, §5, §6

[6] = molecular target: T6, GSK3A (Homo sapiens, UniProt P49840); test: KinaseSeeker competition binding assay
T6 construct: made in house; host or cells: cell-free, rabbit reticulocyte lysate
Method: as §1, §2, §3, §4, §5, §6

[7] = molecular target: T7, PDPK1 (Homo sapiens, UniProt O15530); test: KinaseSeeker competition binding assay
T7 construct: made in house; host or cells: cell-free, rabbit reticulocyte lysate
Method: as §1, §2, §3, §4, §5, §6

[8] = molecular target: T8, BRAF (Homo sapiens, UniProt P15056); test: KinaseSeeker competition binding assay
T8 construct: made in house; host or cells: cell-free system (rabbit reticulocyte lysate)
Method: as §1, §2, §3, §4, §5, §6

[9] = molecular target: T9, TEC (Homo sapiens, UniProt P42680); test: KinaseSeeker competition binding assay
T9 construct: made in house; host or cells: cell-free, rabbit reticulocyte lysate
Method: as §1, §2, §3, §4, §5, §6

[10] = tested on: HCC827TR16; test: Cell growth inhibition by SRB method; format: cell-based; settings: Homo sapiens, Tarceva-resistant line, 72 hrs exposure
Description: Six human cancer cell lines have been used to evaluate effects of the compounds on proliferation of cancer cells. These cell lines include HCC827-P (or HCC827 parent cells), human non-small lung cancer cells, Parent NSCLC HCC827 cell line (which harbors EGFR gene amplification, Exon 19 (E19) deletion, and Exon 21 mutation (Wang, Ramakrishnan et al. 2010), and is an EGFRi sensitive cell line (Kim, Kim et al. 2010)); HCC827-TR16 (Tarceva-resistant HCC727 cell line), HCC827-OR16 (AZD9291-resistant HCC727 cell line), LNCaP (human prostate cancer cells—a hormonal-therapy sensitive cell line (Wang, Liu et al. 1997)); 22RV1 (human prostate cancer cells—a hormonal-therapy resistant cell line (Sramkoski, Pretlow et al. 1999)); and ACHN (human renal adenocarcinoma cells (Park, Jung et al. 2003)). LNCaP cells and 22RV1 cells were purchased from the American Type Culture Collection (Rockville, Md.) and others were gifts of friends.
To evaluate activities of new compounds on growth of EGFR-inhibitor-resistant cells, two EGFRi-resistant cell lines, i.e., HCC827-TR16 and HCC827-OR16 were established using a method described by Eberlein et al. (Eberlein, Stetson et al. 2015). […] Resistant cells were collected and stabilized after 5 weeks (cycle 5). […] The resistant cells were sorted using 96-well dishes by culturing cells with density of 0.1, 1, 10, and 100 cells per well.
All cell lines were maintained in RPMI-1640 (GIBCO, Gaithersburg, Md.) with 10% heat-inactivated bovine serum (FBS) (Wang, Ossowski et al. 2004).
Sulforhodamine B (SRB) was used to estimate cell growth as described previously (Skehan, Storeng et al. 1990). Briefly, cells grown exponentially were aliquoted into 96-well plates at a density of 2,500 to 5,000 cells/200 μl per well in RPMI 1640 medium containing 10% FBS. After twenty-four hours, the cells were exposed to indicated concentrations of tested compounds for 72 hrs or otherwise as indicated. The cells were then fixed with 10% trichloride acetic acid for 2 h at 4° C. The 10% trichloride acetic acid was removed, and the dishes were washed 5 times with tape water, and air-dried. The fixed and dried cells were then stained with 0.4% SRB in 1% acetic acid for 25 min, and the dishes were washed 5 times with 1% acetic acid and air-dried overnight. 200 μl of 10 mM of Tris buffer (pH 10.0) were added, and the dishes were rotated to completely dissolve the color. Absorbance at 570 nm, with a reference wavelength 690 nm, was measured on a 96-well microplate reader (SPECTRO Star^Nano, BMG Labtech). Mean, standard deviation (SD) and the percent of growth inhibition at each concentration point of the treatment were calculated. The percent of growth inhibition as defined as (1−T/C)×100 where T is the mean of the absorbance at 570 nm from the treatment, and C from control (drug vehicle only). IC50 was calculated using Sigma-plot software by regression of growth-concentration curve from each drug treatment.

T8 sequence (P15056 whole entry): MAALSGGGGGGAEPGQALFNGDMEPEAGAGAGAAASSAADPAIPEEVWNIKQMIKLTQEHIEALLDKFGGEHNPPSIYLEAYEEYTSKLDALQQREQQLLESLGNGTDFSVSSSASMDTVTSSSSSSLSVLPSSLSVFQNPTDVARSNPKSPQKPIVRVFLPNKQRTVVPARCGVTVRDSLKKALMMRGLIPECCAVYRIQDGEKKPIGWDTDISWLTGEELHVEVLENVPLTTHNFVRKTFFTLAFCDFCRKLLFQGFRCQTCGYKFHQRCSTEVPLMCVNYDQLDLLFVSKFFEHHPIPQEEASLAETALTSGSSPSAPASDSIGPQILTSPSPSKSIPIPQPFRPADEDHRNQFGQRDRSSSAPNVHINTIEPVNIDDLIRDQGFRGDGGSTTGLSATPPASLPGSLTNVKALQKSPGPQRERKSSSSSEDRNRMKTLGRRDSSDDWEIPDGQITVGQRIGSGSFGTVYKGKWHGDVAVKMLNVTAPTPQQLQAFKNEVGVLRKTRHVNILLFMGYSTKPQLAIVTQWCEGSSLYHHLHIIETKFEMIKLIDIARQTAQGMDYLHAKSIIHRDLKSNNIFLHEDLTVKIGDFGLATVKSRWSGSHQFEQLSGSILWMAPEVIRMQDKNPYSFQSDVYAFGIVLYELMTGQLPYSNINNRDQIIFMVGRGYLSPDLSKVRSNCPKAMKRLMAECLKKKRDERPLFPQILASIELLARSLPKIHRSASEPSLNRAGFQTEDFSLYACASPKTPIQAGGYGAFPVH
T7 sequence (O15530 whole entry): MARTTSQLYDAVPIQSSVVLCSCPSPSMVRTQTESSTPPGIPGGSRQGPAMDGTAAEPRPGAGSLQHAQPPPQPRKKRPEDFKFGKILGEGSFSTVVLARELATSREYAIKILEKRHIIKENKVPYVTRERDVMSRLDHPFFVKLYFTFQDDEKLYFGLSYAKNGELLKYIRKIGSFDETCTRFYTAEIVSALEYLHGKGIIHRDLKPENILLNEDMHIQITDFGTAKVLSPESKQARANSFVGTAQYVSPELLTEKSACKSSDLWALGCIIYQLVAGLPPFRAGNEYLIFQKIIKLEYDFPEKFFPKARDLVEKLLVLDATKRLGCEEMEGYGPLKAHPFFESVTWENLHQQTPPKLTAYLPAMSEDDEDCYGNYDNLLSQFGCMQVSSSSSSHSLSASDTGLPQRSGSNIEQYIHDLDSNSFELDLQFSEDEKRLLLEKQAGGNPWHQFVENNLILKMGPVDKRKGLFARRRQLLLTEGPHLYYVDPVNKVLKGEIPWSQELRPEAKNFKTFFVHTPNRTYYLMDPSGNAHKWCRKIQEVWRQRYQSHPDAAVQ
T3 sequence (P31749 whole entry): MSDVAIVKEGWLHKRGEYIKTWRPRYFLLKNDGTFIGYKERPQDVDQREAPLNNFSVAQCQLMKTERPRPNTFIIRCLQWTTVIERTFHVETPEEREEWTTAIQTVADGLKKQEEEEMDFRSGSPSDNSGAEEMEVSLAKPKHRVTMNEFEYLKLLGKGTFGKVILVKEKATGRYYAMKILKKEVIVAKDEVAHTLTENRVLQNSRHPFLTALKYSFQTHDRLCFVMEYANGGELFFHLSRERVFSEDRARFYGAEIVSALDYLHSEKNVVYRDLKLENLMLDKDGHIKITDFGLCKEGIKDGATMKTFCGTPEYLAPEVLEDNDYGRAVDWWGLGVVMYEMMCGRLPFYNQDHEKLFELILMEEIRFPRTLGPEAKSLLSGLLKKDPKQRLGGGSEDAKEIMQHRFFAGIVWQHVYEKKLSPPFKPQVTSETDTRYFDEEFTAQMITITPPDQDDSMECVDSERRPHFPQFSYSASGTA
T2 sequence (P16234 24-1089): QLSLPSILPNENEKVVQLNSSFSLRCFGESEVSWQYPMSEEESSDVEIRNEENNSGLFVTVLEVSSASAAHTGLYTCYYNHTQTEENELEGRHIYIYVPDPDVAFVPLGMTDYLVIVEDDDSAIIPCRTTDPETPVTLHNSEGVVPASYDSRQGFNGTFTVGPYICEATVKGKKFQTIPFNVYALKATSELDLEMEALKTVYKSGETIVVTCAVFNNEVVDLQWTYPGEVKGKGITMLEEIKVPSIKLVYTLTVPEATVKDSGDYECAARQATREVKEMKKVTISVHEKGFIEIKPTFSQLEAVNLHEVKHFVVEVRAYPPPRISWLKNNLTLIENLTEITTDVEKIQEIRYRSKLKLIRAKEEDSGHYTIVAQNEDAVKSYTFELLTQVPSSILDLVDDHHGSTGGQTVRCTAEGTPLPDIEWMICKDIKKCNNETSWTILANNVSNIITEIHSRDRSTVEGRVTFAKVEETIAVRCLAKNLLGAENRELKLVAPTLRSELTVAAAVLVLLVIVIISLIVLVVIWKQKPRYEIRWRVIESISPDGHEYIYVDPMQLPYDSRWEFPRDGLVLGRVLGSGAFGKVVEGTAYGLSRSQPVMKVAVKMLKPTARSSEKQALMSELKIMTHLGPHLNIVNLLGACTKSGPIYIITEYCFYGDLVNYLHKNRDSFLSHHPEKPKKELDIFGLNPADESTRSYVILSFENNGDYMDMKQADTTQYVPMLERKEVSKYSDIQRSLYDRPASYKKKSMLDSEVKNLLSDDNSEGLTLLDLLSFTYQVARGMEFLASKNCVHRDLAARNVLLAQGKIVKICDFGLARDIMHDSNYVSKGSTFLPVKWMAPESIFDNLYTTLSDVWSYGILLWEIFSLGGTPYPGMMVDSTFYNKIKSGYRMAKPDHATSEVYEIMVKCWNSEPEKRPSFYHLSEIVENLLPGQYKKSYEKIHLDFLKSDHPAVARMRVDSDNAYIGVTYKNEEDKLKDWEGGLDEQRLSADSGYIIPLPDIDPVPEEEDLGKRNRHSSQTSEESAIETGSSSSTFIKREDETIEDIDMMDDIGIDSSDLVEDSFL
T4 sequence (Q15418 whole entry): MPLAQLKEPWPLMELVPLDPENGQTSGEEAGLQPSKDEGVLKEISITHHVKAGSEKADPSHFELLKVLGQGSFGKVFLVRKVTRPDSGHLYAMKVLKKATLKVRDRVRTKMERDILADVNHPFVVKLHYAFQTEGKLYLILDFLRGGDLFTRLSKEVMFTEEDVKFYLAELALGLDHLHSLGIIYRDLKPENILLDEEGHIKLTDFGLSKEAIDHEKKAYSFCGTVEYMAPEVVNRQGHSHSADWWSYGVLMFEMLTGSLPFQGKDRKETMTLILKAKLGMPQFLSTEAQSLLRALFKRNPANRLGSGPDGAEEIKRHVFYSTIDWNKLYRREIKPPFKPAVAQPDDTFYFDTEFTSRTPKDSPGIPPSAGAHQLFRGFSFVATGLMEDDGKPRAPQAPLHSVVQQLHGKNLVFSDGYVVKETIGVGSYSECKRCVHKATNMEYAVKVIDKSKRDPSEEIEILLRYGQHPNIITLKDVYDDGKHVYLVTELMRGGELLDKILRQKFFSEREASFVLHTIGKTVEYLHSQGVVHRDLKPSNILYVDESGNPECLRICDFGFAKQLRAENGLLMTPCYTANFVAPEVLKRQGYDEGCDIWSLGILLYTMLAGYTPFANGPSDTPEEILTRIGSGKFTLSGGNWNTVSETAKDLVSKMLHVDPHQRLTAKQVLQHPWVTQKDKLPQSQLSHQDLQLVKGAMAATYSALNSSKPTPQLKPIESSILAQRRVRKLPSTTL
T5 sequence (P22607 23-806): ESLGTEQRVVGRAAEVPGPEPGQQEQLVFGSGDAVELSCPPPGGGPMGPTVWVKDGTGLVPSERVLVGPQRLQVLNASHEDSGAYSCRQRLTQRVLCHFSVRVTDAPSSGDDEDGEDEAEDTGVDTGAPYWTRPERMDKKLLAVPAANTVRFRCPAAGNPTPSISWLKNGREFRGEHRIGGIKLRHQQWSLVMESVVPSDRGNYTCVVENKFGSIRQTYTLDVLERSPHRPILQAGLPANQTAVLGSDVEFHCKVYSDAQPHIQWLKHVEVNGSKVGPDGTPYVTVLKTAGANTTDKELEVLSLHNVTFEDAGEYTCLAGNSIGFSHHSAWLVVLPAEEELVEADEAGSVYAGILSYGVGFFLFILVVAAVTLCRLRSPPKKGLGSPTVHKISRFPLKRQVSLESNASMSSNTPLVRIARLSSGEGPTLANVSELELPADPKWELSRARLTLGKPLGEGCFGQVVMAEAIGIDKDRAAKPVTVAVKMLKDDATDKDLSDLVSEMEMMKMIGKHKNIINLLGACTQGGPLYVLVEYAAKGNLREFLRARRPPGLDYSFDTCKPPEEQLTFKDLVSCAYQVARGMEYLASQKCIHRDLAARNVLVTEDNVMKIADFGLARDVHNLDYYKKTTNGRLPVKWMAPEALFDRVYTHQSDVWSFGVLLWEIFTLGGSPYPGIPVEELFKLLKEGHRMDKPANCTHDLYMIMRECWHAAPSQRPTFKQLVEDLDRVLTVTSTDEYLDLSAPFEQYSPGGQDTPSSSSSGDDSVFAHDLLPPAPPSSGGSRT
T6 sequence (P49840 whole entry): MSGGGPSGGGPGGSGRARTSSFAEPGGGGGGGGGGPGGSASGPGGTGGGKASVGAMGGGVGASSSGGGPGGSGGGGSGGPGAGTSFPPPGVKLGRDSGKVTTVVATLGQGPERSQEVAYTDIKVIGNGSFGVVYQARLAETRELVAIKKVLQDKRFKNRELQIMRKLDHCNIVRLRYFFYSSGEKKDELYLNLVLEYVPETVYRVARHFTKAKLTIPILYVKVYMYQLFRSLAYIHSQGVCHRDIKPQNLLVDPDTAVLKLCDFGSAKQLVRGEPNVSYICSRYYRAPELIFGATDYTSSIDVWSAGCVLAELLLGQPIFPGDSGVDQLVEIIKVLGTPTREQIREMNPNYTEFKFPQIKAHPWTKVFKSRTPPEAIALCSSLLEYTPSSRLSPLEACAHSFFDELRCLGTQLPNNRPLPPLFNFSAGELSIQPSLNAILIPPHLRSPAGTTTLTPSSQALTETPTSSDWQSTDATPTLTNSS

- remaining binding at 2 µM [1]: 100%
- remaining binding at 2 µM [2]: 96.4%
- remaining binding at 2 µM [3]: 96.8%
- remaining binding at 2 µM [4]: 100%
- remaining binding at 2 µM [5]: 98.9%
- remaining binding at 2 µM [6]: 100%
- remaining binding at 2 µM [7]: 92.8%
- remaining binding at 2 µM [8]: 100%
- remaining binding at 2 µM [9]: 97.4%
- IC50 [10]: 1.3 µM
SMILES: C#Cc1cccc(Nc2ncnc3cc(OCCOC)c(NC(=O)c4ccc(F)c([N+](=O)[O-])c4)cc23)c1 [Reno647, 4-Fluoro-N-[4-(3-ethynyl-phenylamino)-7-(2-methoxy-ethoxy)-quinazolin-6-yl]-3-nitro-benzamide]
